The subject of assay [1] is liver cancer tissue from patients. Description: Efficacy of ACP combined with oxaliplatin or sorafenib in liver cancer SuperPDTX mice model. The following applies: pathology after 7 days; ACP 5 mg/kg p.o. Bid*7, Sorafenib 60 mg/kg p.o. Qd*7, Oxaliplatin 6 mg/kg i.p. Biw*1. It is filed as in vivo, NCG mice. The source says:
(§1) Mice: NCG (NOD-Prkdcem26I12rgem26Nju), Institute of Biomedical Research, Nanjing University
Liver cancer tissue mass were the P1 generation samples of cryopreserved collected from mice after inoculation of the samples from patients with liver cancer, and the samples used in this experiment were P2 generation samples after passage. Liver cancer samples were inoculated in the tested mice, and the size of inoculated tissue was 1*1*4 mm^3. On the day of inoculation, mice were randomly divided into 6 experimental groups with 6 mice in each group and 4 mice in each cage. The day of grouping was defined as Day 0. The mice were administered according to the experimental protocol for 7 days, and sampled within 24 hours after the end of administration. 24 h after the last administration, the experiment was ended, the mice were sacrificed, the tumor was removed, the surrounding connective tissue and muscle tissue were removed under the microscope, and stored in 10% formaldehyde.

The test system of assay [2] is human pancreatic cancer PANC-1. Description: Human pancreatic cancer PANC-1 xenograft transplantation model in nude mice. Type of assay: in vivo. The note with it: ip × 7 qd; for Tumor Inhibition rate %: counted by tumor weight. As to the method:
(§2) ACP Administration Group: oral doses were 5, 2.5 and 1.25 mg/kg; oral administration twice a day (with an interval of about 6 hours) for 14 days.
(§3) ACP+Adriamycin or Cyclophosphamide Administration Group: oral doses of ACP were 5, 2.5 and 1.25 mg/kg; oral administration twice a day (with an interval of about 6 hours) for 14 days. Adriamycin lmg/kg or Cyclophosphamide 15 mg/kg were administered intraperitoneally 10 min after the first ACP administration for 7 consecutive days.
(§4) Positive Control Group: Adriamycin 2 mg/kg/time or cyclophosphamide 30 mg/kg/time were administered intraperitoneally once a day for 7 days.
(§5) Negative Control Group: the same volume of solvent as the experimental group was administered, and the administration scheme was the same as that of the experimental group.
(§6) Human tumor cell lines cryopstored in liquid nitrogen were cultured at 37° C. and 5% CO2 after resuscitation. After subculture, the cells in logarithmic growth period were taken and prepared into cell suspension of about (1-2)×10^7 Cell/ml, and inoculated subcutaneously in the right axilla of nude mice 0.2 ml/mice. Under aseptic conditions, tumor tissues of the second or later generations of human tumors liver cancer QGY-7703, pancreatic cancer PANC-1, and lung cancer A549 xenograft models with vigorous growth in vivo, were taken and cut into uniform pieces with the size of 1-2 mm3, and one piece was subcutaneously inoculated in the right axilla of each naked mouse with trocar. The mouse were randomly divided into groups till the tumors inoculated grow to more than 100 mm^3 and administered according to the experimental design scheme.
(§7) After administration, the tumor size was dynamically observed and tested, and the body weight of tumor-bearing mice was weighed. The short diameter (a) and long diameter (b) of the tumor of the naked mouse were measured with calipers every 3 days, and the tumor volume was calculated according to the formula of (a^2×b)/2. The relative tumor volume (RTV) was calculated from the measured and calculated tumor volume, RTV=Vt/V0. Wherein, Vo is the tumor volume at random grouping (i.e., d0), and Vt is the tumor volume at each measurement (i.e., dn). The animals in each group were sacrificed at about three weeks, and the tumor volume was measured, dissected and weighed. The relative tumor proliferation rate and tumor inhibition rate were calculated according to the following formula: […]
(In general: Xenograft models place foreign cells or tissue in a host animal.)

In assay [3] the test system is human lung cancer A549. Nature of the assay: Human lung cancer A549 xenograft transplantation model in nude mice. Type of assay: in vivo. The following applies: ip × 7 qd; for Tumor Inhibition rate %: counted by tumor weight. As to the method: as §2, §3, §4, §5, §6, §7
The subject of assay [4] is pancreatic cancer tissue from patients. Description: Efficacy of ACP combined with gemcitabine in pancreatic cancer SuperPDTX mice model. It is filed as in vivo, NCG mice. The following applies: ACP 5 mg/kg p.o. Bid*7, Gemcitabine 30 mg/kg i.p. BIW.
Text: as §1
Pancreatic cancer tissue mass were the P2 generation samples of cryopreserved collected from mice after inoculation of the samples from patients with pancreatic cancer, and the samples used in this experiment were P3 generation samples after passage.
Pancreatic cancer samples were inoculated in the tested mice, and the size of inoculated tissue was 1*1*4mm^3. On the day of inoculation, mice were randomly divided into 4 experimental groups with 6 mice in each group and 4 mice in each cage. The day of grouping was defined as Day 0. The mice were administered according to the experimental protocol for 7 days, and sampled within 24 hours after the end of administration. 24h after the last administration, the experiment was ended, the mice were sacrificed, the tumor was removed, the surrounding connective tissue and muscle tissue were removed under the microscope, and stored in 10% formaldehyde.

Assay [5] concerns human liver cancer QGY-7703. Type of assay: in vivo, nude mice. The following applies: ip × 7 qd; for Tumor Inhibition rate %: counted by tumor weight. As to the method:
as §2, §3, §4, §5, §6, §7

Molecules are shown by their SMILES. Like-named read-outs stand apart in the source and are kept apart here.

As for `CNC(=O)c1cc(Oc2ccc(NC(=O)Nc3ccc(Cl)c(C(F)(F)F)c3)cc2)ccn1` [Sorafenib, sorafenib], in assay [1], the “Heterotypic Degree” value is reported as “Severe”, the “Proportion of tumor necrosis TCNR Mean” value was determined as 18.33 ± 7.52% and the “Tumor component Mean” value is 58.33 ± 24.8%.

Regarding `O=C1[O][Pt]2([NH][C@@H]3CCCC[C@H]3[NH]2)[O]C1=O` [Oxaliplatin, oxaliplatin], in assay [1], the “Heterotypic Degree” value is listed as “Severe”, the “Proportion of tumor necrosis TCNR Mean” value is given as 16.67 ± 8.76% and the “Tumor component Mean” value is reported as 53.33 ± 15.1%.

Turning to `COc1cccc2c1C(=O)c1c(O)c3c(c(O)c1C2=O)C[C@@](O)(C(=O)CO)C[C@@H]3O[C@H]1C[C@H](N)[C@H](O)[C@H](C)O1` [adriamycin], the “Tumor weight (gram) x ± SD” value is recorded as 0.668 ± 0.09 gram in assay [2] (1 mg/kg), 0.265 ± 0.06 gram in assay [2] (2 mg/kg), 0.843 ± 0.08 gram in assay [3] (1 mg/kg) and 0.198 ± 0.04 gram in assay [3] (2 mg/kg). Further, the “Tumor Inhibition rate %” value in assay [2] (1 mg/kg) is on record as 34.51%; in assay [2] (2 mg/kg), 74.02%; in assay [3] (1 mg/kg), 42.26%; in assay [3] (2 mg/kg), 86.30%.

In the case of `Nc1ccn([C@@H]2O[C@H](CO)[C@@H](O)C2(F)F)c(=O)n1` [Gemcitabine, gemcitabine], the “Tumor Ki67 Mean” value in assay [4] (immunohistochemistry after 7 days) was found to be 23.33 ± 5.16. Moreover, in assay [4] (pathology after 7 days), the Heterotypic Degree result was “Moderate”, the “Proportion of tumor necrosis TCNR Mean” value was determined as 0.00 ± 0.00 and the “Tumor component Mean” value was found to be 55.00 ± 18.71.

For the molecule `O=P1(N(CCCl)CCCl)NCCCO1` (stereo not shown) [Cyclophosphamide, cyclophosphamide], in assay [5] (15 mg/kg), the “Tumor weight (gram) x ± SD” value amounted to 1.010 ± 0.19 gram and the “Tumor Inhibition rate %” value was 36.88%. In assay [5] (30 mg/kg), the “Tumor weight (gram) x ± SD” value was 0.197 ± 0.04 gram and the “Tumor Inhibition rate %” value worked out at 87.69%.

Values taken from patent publication US20220168319A1, “COMBINED USE OF A-NOR-5alpha ANDROSTANE COMPOUND DRUG AND ANTICANCER DRUG” (SHANGHAI AO QI MEDICAL TECHNOLOGY CO., LTD., priority 2019, published 2022).
